Measurements from patent US6509163B1, “Methods of screening modulators of mammalian P2X7 purinergic receptors” (Glaxo Group Limited, priority 1997, dated 2003).
Where two headings read alike, the source gives them in different places.

Key:
Assay type in all cases: cell-based
P2X7 receptor [1] = molecular target: T1, P2X7 receptor (Rattus norvegicus, UniProt Q64663); assay: Whole-cell recordings of agonist-evoked currents in HEK293 cells transfected with rat P2X7 cDNA (Example 2); conditions: inward currents, brief application (0.5 to 2 s)
T1 construct: yielding a construct that encoded the entire P2X7 protein; expressed in transfected cells
T1 sequence (Q64663 1-595): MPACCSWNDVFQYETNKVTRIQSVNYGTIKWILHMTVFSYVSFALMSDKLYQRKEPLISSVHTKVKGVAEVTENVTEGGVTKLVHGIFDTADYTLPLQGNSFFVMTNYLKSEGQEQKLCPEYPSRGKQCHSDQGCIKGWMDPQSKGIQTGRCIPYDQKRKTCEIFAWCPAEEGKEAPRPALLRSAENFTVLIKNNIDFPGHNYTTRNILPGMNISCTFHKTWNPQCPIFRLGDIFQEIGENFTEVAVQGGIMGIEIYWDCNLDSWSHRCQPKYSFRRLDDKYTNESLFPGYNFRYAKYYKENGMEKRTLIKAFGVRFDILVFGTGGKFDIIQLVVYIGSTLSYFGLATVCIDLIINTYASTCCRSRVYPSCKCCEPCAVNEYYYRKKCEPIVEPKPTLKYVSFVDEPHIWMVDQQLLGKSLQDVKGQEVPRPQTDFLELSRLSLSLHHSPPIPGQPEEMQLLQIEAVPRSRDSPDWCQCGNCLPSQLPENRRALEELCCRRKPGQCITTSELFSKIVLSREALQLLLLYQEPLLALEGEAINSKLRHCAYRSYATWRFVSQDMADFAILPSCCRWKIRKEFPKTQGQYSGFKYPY

hP2X7 receptor = molecular target: T2, hP2X7 receptor (Homo sapiens, UniProt Q99572); assay: Whole-cell recordings in HEK293 cells transiently transfected with hP2X7 receptors (Example 3)
T2 construct: a clone containing the complete open reading frame of the hP2X7 receptor was constructed; expressed in transfected cells; host or cells: HEK293 (transient), pcDNA3
T2 sequence (Q99572 1-595): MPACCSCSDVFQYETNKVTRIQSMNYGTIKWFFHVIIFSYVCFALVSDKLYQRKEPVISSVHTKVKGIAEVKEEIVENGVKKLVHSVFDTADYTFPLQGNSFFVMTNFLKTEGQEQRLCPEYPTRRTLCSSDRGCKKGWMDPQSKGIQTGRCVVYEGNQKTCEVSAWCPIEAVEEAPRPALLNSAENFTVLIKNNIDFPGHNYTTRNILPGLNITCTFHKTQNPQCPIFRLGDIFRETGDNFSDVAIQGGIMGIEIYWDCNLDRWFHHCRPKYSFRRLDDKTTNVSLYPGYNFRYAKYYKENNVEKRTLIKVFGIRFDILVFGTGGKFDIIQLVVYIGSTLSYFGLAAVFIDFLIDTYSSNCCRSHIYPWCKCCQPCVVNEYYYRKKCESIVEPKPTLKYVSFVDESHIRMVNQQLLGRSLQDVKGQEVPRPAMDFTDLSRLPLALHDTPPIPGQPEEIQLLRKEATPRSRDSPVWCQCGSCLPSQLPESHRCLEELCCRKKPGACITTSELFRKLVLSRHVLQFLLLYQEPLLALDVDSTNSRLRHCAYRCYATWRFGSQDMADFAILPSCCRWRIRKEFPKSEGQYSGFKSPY
Description: (§1) Cell culture. HEK293 cells were transiently transfected with cDNA (1 μg/ml) and lipofectin dissolved in Optimem (GIBCO) placed into petri dishes containing four coverslips onto which cells were plated at a density of about 8×10^4/coverslip. Cells were washed 5 h later and normal DMEM applied. Electrophysiological studies or dye uptake measurements were carried out 18-49 h later. For each set of transfections, parallel experiments were performed on HEK cells transfected with cDNA encoding both rP2X7 and hP2X7 receptors.
(§2) Electrophysiological experiments. Whole-cell recordings were made using the EPC9 patch-clamp amplifier and Pulse acquisition programs (HEKA, Lambrecht, Germany). Patch pipettes (5-7 MΩ) contained (mM) CsCl or NaCl 154, EGTA 10, HEPES 5. The normal extracellular solution contained (mM) NaCg 147, KCl2, CaCl2 2, MgCl2 1, HEPES 10 and glucose 12, and the “low divalent” solution had no magnesium and 0.3 mM CaCl2. Agonists were delivered by U-tube delivery system; antagonists, when applied, were present in both superfusion and U-tube. Experiments were carried out at room temperature.

P2X7 receptor [2] = molecular target: T1, P2X7 receptor; assay: Whole-cell recordings of agonist-evoked currents in HEK293 cells transfected with rat P2X7 cDNA (Example 2); conditions: for EC50: read-out: EC50 (half-maximal concentration) for current; for agonist effect (evoking inward current): concentration 300 to 1000 μM
Description: (§3) Whole-cell recordings were obtained at room temperature from HEK293 cells transiently or stably transfected with P2X7 cDNA, from HEK293 cells transiently transfected with P2X7ΔC cDNA, and from J774A.1 cells (American Type Culture Collection, Rockville, Md.). Agonist were applied for periods of 1 to 3 s by a fast-flow U-tube delivery system (Fenwick et al, J. Physiol. (London) 331:577 (1982)). The internal pipette solution was 140 mM cesium-aspartate or potassium-aspartate, 20 mM NaCl, 10 mM EGTA, and 5 mM Hepes: normal external solution was 145 mM NaCl, 2 mM KCl, 2 mM CaCl2, 1 mM MgCl2, 10 mM Hepes, and 12 mM glucose. Low divalent external solution was nominally magnesium-free with 0.3 mM CaCl2. For cells expressing P2X7 receptors and J774 cells, concentration-response curves were constructed in low divalent solution by recording currents in response to 1-s applications of agonist at 8-min intervals with normal external solution present for 6 min before each application. This protocol was necessary to prevent the development of sustained inward currents. Lipofectin was used for transfection (Buell et al, EMBO J. 15:55 (1996)).
Reversal potentals (Erev) were obtained by application of ATP (300 μM) or BzATP (30 μM) while the membrane was held at various potentals or by application of voltage ramps from −120 to 30 or 50 mV. Permeability ratios from (Erev) were calculated by first computing α (=Pna/PK, where P is permeability) for internal (i) and external (o) concentrations [Na]i=20 mM, [Na]o=145 mM, [Ko]=0 mM, and [K]i=140 mM from α={[145/exp(Erev)F/RT −20]}/140 (where F is the Faraday, R is the gas constant, and T is the absolute temperature). Other PK/PNa values, when [X]o=145 mM, [Na]i=20 mM, [K]i=140 mM, and [Na]o=[K]o=[X]i=0 mM, were computed from PK/PNa={[exp (ErevF/RT) (20=140α)}/145. In order of size (FIG. 3C), X was cesium, methylamine, tris(hydroxymethyl)-aminomethane, tetraethylammonium, and N-methyl-D-glucamine. The internal solution also contained 10 mM EGTA and 5 mM Hepes. External solutions also contained 10 mM glucose and normal or low concentrations of divalent cations; pH was maintained at 7.3 with HCl, histidine, or Hepes as required, and the osmolarity of all solutions was 295 to 315.

J774 cells = assay: Whole-cell recordings of BzATP-evoked currents in J774 macrophage cells; conditions: three J774 cells; read-out: half-maximal inhibition of currents evoked by 30 μM BzATP
Description: as §3

rP2X7 receptor = molecular target: T3, rP2X7 receptor (Rattus norvegicus, UniProt Q64663); assay: Whole-cell recordings in HEK293 cells transiently transfected with rP2X7 receptors (Example 3)
T3 construct: yielding a construct that encoded the entire P2X7 protein; expressed in transfected cells
T3 sequence (Q64663 1-595): T1 sequence (Q64663 1-595)
Description: as §1, §2

[3] = vs 30 μM BzATP, n=3, read-out: concentration causing half-maximal inhibition of currents
[4] = percentage of value in 1 mM magnesium

SMILES: CSc1nc(N)c2ncn([C@@H]3O[C@H](COP(=O)(O)OP(=O)(O)OP(=O)(O)O)[C@@H](O)[C@H]3O)c2n1 [2MeSATP]
- agonist order of potency (P2X7 receptor [1]): BzATP>>ATP>2MeSATP>ATP-γ-S>>ADP

SMILES: Nc1ncnc2c1ncn2[C@@H]1O[C@H](COP(=O)(O)OP(=O)(O)O)[C@@H](O)[C@H]1O [ADP]
- agonist order of potency (P2X7 receptor [1]): BzATP>>ATP>2MeSATP>ATP-γ-S>>ADP

SMILES: Nc1ncnc2c1ncn2[C@@H]1O[C@H](COP(=O)(O)OP(=O)(O)OP(O)(O)=S)[C@@H](O)[C@H]1O [ATP-γ-S]
- agonist order of potency (P2X7 receptor [1]): BzATP>>ATP>2MeSATP>ATP-γ-S>>ADP

SMILES: Nc1ncnc2c1ncn2[C@@H]1O[C@H](COP(=O)(O)OP(=O)(O)OP(=O)(O)O)[C@@H](O)[C@H]1O [ATP]
- EC50 at hP2X7 relative to rP2X7 receptor (fold greater) (hP2X7 receptor): about 10 fold
- EC50 (P2X7 receptor [2]; normal solution (2 mM CaCl2, 1 mM MgCl2), n=4): 115 ± 9 µM
- EC50 (P2X7 receptor [2]; zero magnesium, n=7): 85 ± 8 µM
- agonist order of potency (P2X7 receptor [1]): BzATP>>ATP>2MeSATP>ATP-γ-S>>ADP

SMILES: Nc1ncnc2c1ncn2[C@@H](C=O)O[C@@H](C=O)COP(=O)(O)OP(=O)(O)OP(=O)(O)O [Oxidized ATP]
- block of currents evoked by 30 μM BzATP (P2X7 receptor [2]; 100 μM, cells preincubated for 1 to 2 hours, n=5): irreversibly blocked currents

SMILES: Cc1nc(N=Nc2ccc(S(=O)(=O)O)cc2S(=O)(=O)O)c(COP(=O)(O)O)c(C=O)c1O [PPADS, pyridoxal 5-phosphate-6-azophenyl 2′4′-disulfonic acid]
- IC50 (P2X7 receptor [2]; four HEK cells, read-out: half-maximal inhibition of currents evoked by 30 μM BzATP): 45 ± 8 µM
- IC50 (J774 cells): 60 ± 9 µM
- IC50 (rP2X7 receptor; [3]): 51 ± 4 µM

SMILES: O=c1ccn([C@@H]2O[C@H](COP(=O)(O)OP(=O)(O)OP(=O)(O)O)[C@@H](O)[C@H]2O)c(=O)[nH]1 [UTP]
- agonist effect (evoking inward current) (P2X7 receptor [2]): ineffective

SMILES: Nc1ncnc2c1ncn2[C@@H]1O[C@H](CO)[C@@H](O)[C@H]1O [adenosine]
- agonist effect (evoking inward current) (P2X7 receptor [2]): ineffective

SMILES: NC(N)=NC(=O)c1nc(Cl)c(N2CCCCCC2)nc1N [hexamethylene amiloride]
- blocking current evoked by 30 μM BzATP (P2X7 receptor [2]; 100 μM, n=6): ineffective

SMILES: [Mg+2] [magnesium]
- IC50 (hP2X7 receptor; currents evoked by 300 μM BzATP, read-out: concentration of magnesium causing half-maximal inhibition of the current): 212 µM
- increase of currents on removal of external magnesium (hP2X7 receptor; [4]): 670±80%
- IC50 (rP2X7 receptor; currents evoked by 30 μM BzATP, read-out: concentration of magnesium causing half-maximal inhibition of the current): 780 µM
- increase of currents on removal of external magnesium (rP2X7 receptor; [4]): 420±84%

SMILES: Cc1ccc(C(=O)Nc2ccc(S(=O)(=O)O)c3cc(S(=O)(=O)O)cc(S(=O)(=O)O)c23)cc1NC(=O)c1cccc(NC(=O)Nc2cccc(C(=O)Nc3cc(C(=O)Nc4ccc(S(=O)(=O)O)c5cc(S(=O)(=O)O)cc(S(=O)(=O)O)c45)ccc3C)c2)c1 [suramin]
- inhibition at 300 µM (P2X7 receptor [2]; read-out: inhibition of currents evoked by 30 μM BzATP): 15 to 38%
- IC50 (rP2X7 receptor; [3]): 78 ± 3 µM

SMILES: Nc1ncnc2c1ncn2[C@@H]1O[C@H](COP(=O)(O)CP(=O)(O)OP(=O)(O)O)[C@@H](O)[C@H]1O [αβ-methylene ATP]
- agonist effect (evoking inward current) (P2X7 receptor [2]): ineffective

SMILES: Nc1ncnc2c1ncn2[C@@H]1O[C@H](COP(=O)(O)OP(=O)(O)CP(=O)(O)O)[C@@H](O)[C@H]1O [βγ-methylene ATP]
- agonist effect (evoking inward current) (P2X7 receptor [2]): ineffective
